From patent publication US7153650B2, “Marker system for preparing and characterizing high-quality human embryonic stem cells” (Geron Corporation, priority 2003, dated 2006)
Marks after values point to notes of the source that are not given here.

Tested on: hES cells
Test: Quantitative RT-PCR analysis of gene expression in hESC differentiation (culture with RA or DMSO)
Assay type: cell-based, human
Settings: for Fold Change, 130 kDa leucine-rich protein (LRP 130) mRNA / Fold Change, Bone marrow stromal antigen 2 (BST-2) mRNA / Fold Change, Bone morphogenetic protein receptor, type Ia (BMPR1A) (ALK-3) mRNA / Fold Change, EST (GA_28053, T24677) / Fold Change, Early development regulator 1 (polyhomeotic 1 homolog) (EDR1) mRNA / Fold Change, Ephrin type-a receptor 1 (EPHA1) mRNA / Fold Change, FLJ31267 (acetylglucosaminyltransferase-like protein) mRNA / Fold Change, Fibroblast growth factor receptor 3 precursor (FGFR-3) mRNA / Fold Change, Forkhead box h1 (FOXH1) mRNA / Fold Change, Forkhead box o1a (foxo1a) mRNA / Fold Change, Gamma-aminobutyric acid (GABA) A receptor, beta 3 mRNA / Fold Change, Gastrin-releasing peptide receptor (GRP-R) mRNA / Fold Change, Glypican-2 (cerebroglycan) mRNA / Fold Change, Hypothetical protein BC018070 mRNA / Fold Change, Hypothetical protein FLJ14549 mRNA / Fold Change, Kallmann syndrome 1 sequence (KAL1) mRNA / Fold Change, Krab-zinc finger protein SZF1-1 mRNA / Fold Change, Left-right determination, factor b (LEFTB) mRNA / Fold Change, Nell2 (NEL-like protein 2) mRNA / Fold Change, Notch 1 (N1) mRNA / Fold Change, Octamer-binding transcription factor 3a (OCT-3A) (OCT-4) mRNA / Fold Change, Podocalyxin-like (PODXL) mRNA / Fold Change, Potassium channel subfamily k member 5 (TASK-2) mRNA / Fold Change, Protein tyrosine phosphatase, receptor-type, z polypeptide 1 (PTPRZ1) mRNA / Fold Change, Roundabout, axon guidance receptor, homolog 1 (ROBO1) mRNA / Fold Change, Sal-like 1 (SALL1) mRNA / Fold Change, Secreted phosphoprotein 1 (osteopontin) mRNA / Fold Change, Solute carrier family 6, member 8 (SLC6A8) mRNA / Fold Change, Telomerase reverse transcriptase (TERT) mRNA / Fold Change, Teratocarcinoma-derived growth factor 1 (CRIPTO) mRNA / Fold Change, Thy-1 co-transcribed mRNA / Fold Change, Zic family member 3 (ZIC3) mRNA / Fold Change, Zinc finger protein of cerebellum ZIC2 mRNA / Fold Change, Zinc finger protein, HSAL2 mRNA / Fold Change, Pr domain containing 14 (PRDM14) mRNA: hES cells cultured 1 week with 500 nM RA or 0.5% DMSO; for Fold Change, Pr domain containing 14 (PRDM14) mRNA: normalised to 18S rRNA, 2^-ddCT
Description: To verify the expression patterns of particular genes of interest at the mRNA level, extracts of undifferentiated hES cells and their differentiated progeny were assayed by real-time PCR. Cells were cultured for 1 week with 0.5% dimethyl sulfoxide (DMSO) or 500 nM retinoic acid (RA). The samples were amplified using sequence-specific primers, and the rate of amplification was correlated with the expression level of each gene in the cell population.
Taqman™ RT-PCR was performed under the following conditions: 1×RT Master Mix (ABI), 300 nM for each primer, and 80 nM of probe, and 10 pg to 100 ng of total RNA in nuclease-free water. The reaction was conducted under default RT-PCR conditions of 48° C. hold for 30 min, 95° C. hold for 10 min, and 40 cycles of 95° C. at 15 sec and 60° C. hold for 1 min. RNA was isolated by a guanidinium isothiocyanate method (RNAeasy™ kit, Qiagen) according to manufacturer's instructions, and subsequently DNAse treated (DNAfree™ kit, Ambion). Gene-specific primers and probes were designed by PrimerExpress™ software (Ver. 1.5, ABI). Probe oligonucleotides were synthesized with the fluorescent indicators 6-carboxyfluorescein (FAM) and 6-carboxy-tetramethylrhodamine (TAMRA) at the 5′ and 3′ ends, respectively. Relative quantitation of gene expression between multiple samples was achieved by normalization against endogenous 18S ribosomal RNA (primer and probe from ABI) using the ΔΔCT method of quantitation (ABI). Fold change in expression level was calculated as 2^−ΔΔCT.
Since the cells have been cultured in RA and DMSO for a short period, they are at the early stages of differentiation, and the difference in expression level is less dramatic than it would be after further differentiation. Of particular interest for following or modulating the differentiation process are markers that show modified expression within the first week of differentiation by more than 2-fold (*), 5-fold (**), 10-fold (***), or 100-fold (****).
KALL and EPHAL were not tested.

[1] = H9 hES cells after culturing for 7 days with RA or DM (FIG. 1)

| Structure (SMILES) | Fold Change, 130 kDa leucine-rich protein (LRP 130) mRNA [fold] | Fold Change, Bone marrow stromal antigen 2 (BST-2) mRNA [fold] | Fold Change, Bone morphogenetic protein receptor, type Ia (BMPR1A) (ALK-3) mRNA [fold] | Fold Change, EST (GA_28053, T24677) | Fold Change, Early development regulator 1 (polyhomeotic 1 homolog) (EDR1) mRNA [fold] | Fold Change, Ephrin type-a receptor 1 (EPHA1) mRNA [fold] | Fold Change, FLJ31267 (acetylglucosaminyltransferase-like protein) mRNA [fold] | Fold Change, Fibroblast growth factor receptor 3 precursor (FGFR-3) mRNA [fold] | Fold Change, Forkhead box h1 (FOXH1) mRNA [fold] | Fold Change, Forkhead box o1a (foxo1a) mRNA [fold] | Fold Change, Gamma-aminobutyric acid (GABA) A receptor, beta 3 mRNA [fold] | Fold Change, Gastrin-releasing peptide receptor (GRP-R) mRNA [fold] | Fold Change, Glypican-2 (cerebroglycan) mRNA [fold] | Fold Change, Hypothetical protein BC018070 mRNA [fold] | Fold Change, Hypothetical protein FLJ14549 mRNA [fold] | Fold Change, Kallmann syndrome 1 sequence (KAL1) mRNA [fold] | Fold Change, Krab-zinc finger protein SZF1-1 mRNA [fold] | Fold Change, Left-right determination, factor b (LEFTB) mRNA [fold] | Fold Change, Nell2 (NEL-like protein 2) mRNA [fold] | Fold Change, Notch 1 (N1) mRNA [fold] | other results |
| --- | --- | --- | --- | --- | --- | --- | --- | --- | --- | --- | --- | --- | --- | --- | --- | --- | --- | --- | --- | --- | --- |
| C[S+](C)[O-] [DMSO, dimethyl sulfoxide] | −1.9 | −1.9 | −2.4 | <−100* fold | −5.6 | −1.9 | −4.5 | 2.3 | −5.6 | −2.9 | −5.6 | −9.1 | −1.2 | −10.0 | −10.0 | −2.5 | −3.1 | −25.0 | −1.3 | 1.0 | Gene expression of ICAM in differentiated cells [1]: below the limit of detection; Gene expression of rhodopsin in differentiated cells [1]: below the limit of detection; Fold Change, Octamer-binding transcription factor 3a (OCT-3A) (OCT-4) mRNA: −7.7 fold; Fold Change, Podocalyxin-like (PODXL) mRNA: −4.3 fold; Fold Change, Potassium channel subfamily k member 5 (TASK-2) mRNA: 1.0 fold; Fold Change, Protein tyrosine phosphatase, receptor-type, z polypeptide 1 (PTPRZ1) mRNA: −3.3 fold; Fold Change, Roundabout, axon guidance receptor, homolog 1 (ROBO1) mRNA: 1.0 fold; Fold Change, Sal-like 1 (SALL1) mRNA: −1.3 fold; Fold Change, Secreted phosphoprotein 1 (osteopontin) mRNA: −10.0 fold; Fold Change, Solute carrier family 6, member 8 (SLC6A8) mRNA: −1.1 fold; Fold Change, Telomerase reverse transcriptase (TERT) mRNA: −2.3 fold; Fold Change, Teratocarcinoma-derived growth factor 1 (CRIPTO) mRNA: −12.5 fold; Fold Change, Thy-1 co-transcribed mRNA: −11.1 fold; Fold Change, Zic family member 3 (ZIC3) mRNA: −5.3 fold; Fold Change, Zinc finger protein of cerebellum ZIC2 mRNA: −2.9 fold; Fold Change, Zinc finger protein, HSAL2 mRNA: −2.8 fold; Fold Change, Pr domain containing 14 (PRDM14) mRNA: −8.3 fold |
| CC1=C(/C=C/C(C)=C/C=C/C(C)=C/C(=O)O)C(C)(C)CCC1 [RA, retinoic acid] | −1.9 | 1.1 | −2.4 | <−100* fold | −1.8 | −1.3 | −2.3 | 1.5 | −1.8 | −1.6 | −2.8 | −6.3 | −1.5 | −3.2 | −2.3 | −1.1 | −1.8 | −16.7 | −1.3 | 1.3 | Fold Change, Octamer-binding transcription factor 3a (OCT-3A) (OCT-4) mRNA: −3.7 fold; Fold Change, Podocalyxin-like (PODXL) mRNA: −2.6 fold; Fold Change, Potassium channel subfamily k member 5 (TASK-2) mRNA: −1.6 fold; Fold Change, Protein tyrosine phosphatase, receptor-type, z polypeptide 1 (PTPRZ1) mRNA: −1.7 fold; Fold Change, Roundabout, axon guidance receptor, homolog 1 (ROBO1) mRNA: 1.1 fold; Fold Change, Sal-like 1 (SALL1) mRNA: 1.4 fold; Fold Change, Secreted phosphoprotein 1 (osteopontin) mRNA: −3.8 fold; Fold Change, Solute carrier family 6, member 8 (SLC6A8) mRNA: −1.1 fold; Fold Change, Telomerase reverse transcriptase (TERT) mRNA: −2.1 fold; Fold Change, Teratocarcinoma-derived growth factor 1 (CRIPTO) mRNA: −4.0 fold; Fold Change, Thy-1 co-transcribed mRNA: −12.5 fold; Fold Change, Zic family member 3 (ZIC3) mRNA: −1.7 fold; Fold Change, Zinc finger protein of cerebellum ZIC2 mRNA: 1.0 fold; Fold Change, Zinc finger protein, HSAL2 mRNA: −1.4 fold; Fold Change, Pr domain containing 14 (PRDM14) mRNA: −1.9 fold |
